Patent publication US20250059198A1, “BRM DEGRADING COMPOUNDS AND ASSOCIATED METHODS OF USE” (Arvinas Operations, Inc., priority 2021, published 2025)

Molecular target: T1, BRM (Homo sapiens, UniProt P51531)
T1 construct: Western Blot Screen of BRM Degradation in SW1573 Cells; endogenous in cells; host or cells: SW1573 cells
Experiment: BRM degradation (Dmax and DC50) in SW1573 cells, Western blot screen / In-Cell Western screen
Assay type: cell-based
Details: overnight (18-20 hours) treatment; for Dmax: read-out: Dmax (%)** (% degraded)
Outline: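 Dmax and DC50 were derived from BRM levels normalised to an alpha-tubulin control, measured by chemiluminescent Western blotting of lysates or by PFA-fixed In-Cell Western on LI-COR Odyssey. SW1573 cells received compound overnight (18–20 h, 0.1% DMSO final).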

T1 sequence (P51531 whole entry): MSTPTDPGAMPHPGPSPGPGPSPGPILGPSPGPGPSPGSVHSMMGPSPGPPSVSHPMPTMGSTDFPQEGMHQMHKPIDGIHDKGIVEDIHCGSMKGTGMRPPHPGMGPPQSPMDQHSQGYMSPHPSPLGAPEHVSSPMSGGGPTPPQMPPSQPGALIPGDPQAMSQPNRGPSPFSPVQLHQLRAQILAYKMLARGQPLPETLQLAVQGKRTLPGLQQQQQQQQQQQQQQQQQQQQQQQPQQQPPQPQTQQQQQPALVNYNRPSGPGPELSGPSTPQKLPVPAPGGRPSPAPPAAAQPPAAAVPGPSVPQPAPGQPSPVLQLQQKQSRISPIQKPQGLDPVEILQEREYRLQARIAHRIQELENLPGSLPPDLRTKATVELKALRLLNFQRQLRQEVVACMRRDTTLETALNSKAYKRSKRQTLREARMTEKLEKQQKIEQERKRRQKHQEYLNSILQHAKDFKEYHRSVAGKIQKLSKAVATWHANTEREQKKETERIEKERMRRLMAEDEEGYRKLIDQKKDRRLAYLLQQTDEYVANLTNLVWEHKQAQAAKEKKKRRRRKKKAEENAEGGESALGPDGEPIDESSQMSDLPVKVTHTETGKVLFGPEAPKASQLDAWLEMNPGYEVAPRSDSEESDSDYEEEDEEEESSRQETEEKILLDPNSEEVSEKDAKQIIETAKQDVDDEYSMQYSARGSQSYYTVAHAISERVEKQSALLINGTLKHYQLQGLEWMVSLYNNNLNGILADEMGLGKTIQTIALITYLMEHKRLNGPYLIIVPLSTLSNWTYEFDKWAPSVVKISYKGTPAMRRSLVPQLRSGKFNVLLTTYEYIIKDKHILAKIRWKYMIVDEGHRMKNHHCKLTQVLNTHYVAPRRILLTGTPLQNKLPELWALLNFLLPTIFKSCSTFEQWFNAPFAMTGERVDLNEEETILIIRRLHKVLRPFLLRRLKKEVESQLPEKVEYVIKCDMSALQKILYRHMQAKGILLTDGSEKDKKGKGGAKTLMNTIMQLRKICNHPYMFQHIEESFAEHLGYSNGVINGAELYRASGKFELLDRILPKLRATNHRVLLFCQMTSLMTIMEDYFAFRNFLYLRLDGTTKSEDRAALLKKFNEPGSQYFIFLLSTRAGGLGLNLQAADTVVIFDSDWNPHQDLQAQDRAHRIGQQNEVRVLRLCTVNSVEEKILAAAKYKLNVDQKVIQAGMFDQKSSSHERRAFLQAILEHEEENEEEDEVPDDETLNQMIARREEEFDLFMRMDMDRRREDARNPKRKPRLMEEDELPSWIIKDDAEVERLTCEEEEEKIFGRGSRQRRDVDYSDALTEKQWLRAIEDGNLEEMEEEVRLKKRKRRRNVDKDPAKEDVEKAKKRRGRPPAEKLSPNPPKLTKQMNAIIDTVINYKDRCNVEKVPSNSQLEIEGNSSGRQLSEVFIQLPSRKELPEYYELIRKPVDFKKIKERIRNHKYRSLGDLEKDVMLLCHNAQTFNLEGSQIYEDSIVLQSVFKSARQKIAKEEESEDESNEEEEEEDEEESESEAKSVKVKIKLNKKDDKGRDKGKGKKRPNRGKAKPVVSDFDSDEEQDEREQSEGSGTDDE

| Structure (SMILES) | DC50 | Dmax |
| --- | --- | --- |
| Cc1ncsc1-c1ccc([C@H](C)NC(=O)C2C[C@@H](O)CN2C(=O)[C@@H](c2cc(N3CCC(CN4CC[C@@H](Oc5cc(N6C7CCC6CN(c6cc(-c8ccccc8O)nnc6N)C7)ccn5)[C@@H](F)C4)CC3)no2)C(C)C)cc1 (stereo in doubt) [Compound 49, (2S,4R)-1-[(2R)-2-[3-(4-{[(3S,4R)-4-[(4-{3-[3-amino-6-(2-hydroxyphenyl)pyridazin-4-yl]-3,8-diazabicyclo[3.2.1]octan-8-yl}pyridin-2-yl)oxy]-3-fluoropiperidin-1-yl]methyl}piperidin-1-yl)-1,2-oxazol-5-yl]-3-methylbutanoyl]-4-hydroxy-N-[(1S)-1-[4-(4-methyl-1,3-thiazol-5-yl)phenyl]ethyl]pyrrolidine-2-carboxamide] | < 2.5 nM | > 75% |
| CC(C)[C@@H](C(=O)N1C[C@H](O)C[C@H]1C(=O)N[C@@H](C)c1ccc(-c2ccnn2C)cc1)c1cc(N2CCC(CN3CCC(O[C@H]4C[C@H](N5CCOC6(CCN(c7cc(-c8ccccc8O)nnc7N)CC6)C5)C4)CC3)CC2)no1 [Compound 28, (2S,4R)-4-hydroxy-N-[(1S)-1-[4-(1-methyl-1H-pyrazol-5-yl)phenyl]ethyl]-1-[(2R)-3-methyl-2-{3-[4-({4-[(1r,3r)-3-{9-[3-amino-6-(2-hydroxyphenyl)pyridazin-4-yl]-1-oxa-4,9-diazaspiro[5.5]undecan-4-yl}cyclobutoxy]piperidin-1-yl}methyl)piperidin-1-yl]-1,2-oxazol-5-yl}butanoyl]pyrrolidine-2-carboxamide] | < 2.5 nM | > 75% |
| Cc1ncsc1-c1ccc([C@H](C)NC(=O)[C@@H]2C[C@@H](O)CN2C(=O)[C@@H](c2cc(N3CCC(CN4CCC5(CC4)CC(N4CCO[C@@H](CNC6CCN(c7cc(-c8ccccc8O)nnc7N)CC6)C4)C5)CC3)no2)C(C)C)cc1 [Compound 113, (2S,4R)-1-[(2R)-2-{3-[4-({2-[(2S)-2-[({1-[3-amino-6-(2-hydroxyphenyl)pyridazin-4-yl]piperidin-4-yl}amino)methyl]morpholin-4-yl]-7-azaspiro[3.5]nonan-7-yl}methyl)piperidin-1-yl]-1,2-oxazol-5-yl}-3-methylbutanoyl]-4-hydroxy-N-[(1S)-1-[4-(4-methyl-1,3-thiazol-5-yl)phenyl]ethyl]pyrrolidine-2-carboxamide] | < 2.5 nM | > 75% |
| Cc1ncsc1-c1ccc([C@H](C)NC(=O)[C@@H]2C[C@@H](O)CN2C(=O)[C@@H](c2cc(N3CCC(CN4CCC5(CC4)CC(N4CCO[C@@H]([C@H](C)n6cc(C#Cc7cc(-c8ccccc8O)nnc7N)cn6)C4)C5)CC3)no2)C(C)C)cc1 [Compound 97, (2S,4R)-1-[(2R)-2-{3-[4-({2-[(2R)-2-[(1S)-1-(4-{2-[3-amino-6-(2-hydroxyphenyl)pyridazin-4-yl]ethynyl}-1H-pyrazol-1-yl)ethyl]morpholin-4-yl]-7-azaspiro[3.5]nonan-7-yl}methyl)piperidin-1-yl]-1,2-oxazol-5-yl}-3-methylbutanoyl]-4-hydroxy-N-[(1S)-1-[4-(4-methyl-1,3-thiazol-5-yl)phenyl]ethyl]pyrrolidine-2-carboxamide] | < 2.5 nM | > 75% |
| Cc1ncsc1-c1ccc([C@H](C)NC(=O)[C@@H]2C[C@@H](O)CN2C(=O)[C@@H](c2cc(N3CCC(CN4CC[C@@H](OC(=O)N5CCN(c6cc(-c7ccccc7O)nnc6N)CC5)[C@H](F)C4)CC3)no2)C(C)C)cc1 [Compound 102, (3R,4R)-3-fluoro-1-[(1-{5-[(2R)-1-[(2S,4R)-4-hydroxy-2-{[(1S)-1-[4-(4-methyl-1,3-thiazol-5-yl)phenyl]ethyl]carbamoyl}pyrrolidin-1-yl]-3-methyl-1-oxobutan-2-yl]-1,2-oxazol-3-yl}piperidin-4-yl)methyl]piperidin-4-yl 4-[3-amino-6-(2-hydroxyphenyl)pyridazin-4-yl]piperazine-1-carboxylate] | 2.5 to 10 nM | > 75% |
| CC(C)[C@H](C(=O)N1C[C@H](O)C[C@H]1C(=O)N[C@@H](C)c1ccc(C#N)cc1)c1cc(O[C@H]2C[C@H](CN3CCC(O[C@H]4C[C@H](Oc5cc(N6C7CCC6CN(c6cc(-c8ccccc8O)nnc6N)C7)ccn5)C4)CC3)C2)no1 [Compound 1, (2S,4R)-N-[(1S)-1-(4-cyanophenyl)ethyl]-4-hydroxy-1-[(2S)-3-methyl-2-{3-[(1r,3r)-3-({4-[(1r,3r)-3-[(4-{3-[3-amino-6-(2-hydroxyphenyl)pyridazin-4-yl]-3,8-diazabicyclo[3.2.1]octan-8-yl}pyridin-2-yl)oxy]cyclobutoxy]piperidin-1-yl}methyl)cyclobutoxy]-1,2-oxazol-5-yl}butanoyl]pyrrolidine-2-carboxamide] | ≥ 30 nM |  |
| CC(C)[C@@H](C(=O)N1C[C@H](O)C[C@H]1C(=O)N[C@@H](C)c1ccc(-c2ccnn2C)cc1)c1cc(N2CCC(CN3CCC(CN4CCC5(CC4)CC(Oc4cc(N6C7CCC6CN(c6cc(-c8ccccc8O)nnc6N)C7)ccn4)C5)CC3)CC2)no1 [Compound 39, (2S,4R)-1-[(2R)-2-[3-(4-{[4-({2-[(4-{3-[3-amino-6-(2-hydroxyphenyl)pyridazin-4-yl]-3,8-diazabicyclo[3.2.1]octan-8-yl}pyridin-2-yl)oxy]-7-azaspiro[3.5]nonan-7-yl}methyl)piperidin-1-yl]methyl}piperidin-1-yl)-1,2-oxazol-5-yl]-3-methylbutanoyl]-4-hydroxy-N-[(1S)-1-[4-(1-methyl-1H-pyrazol-5-yl)phenyl]ethyl]pyrrolidine-2-carboxamide] | < 2.5 nM | > 75% |
| Cc1ncsc1-c1ccc([C@H](C)NC(=O)[C@@H]2C[C@@H](O)CN2C(=O)[C@@H](c2cc(N3CCC(CN4CCC(O[C@H]5C[C@H](N6CCC(C(C)n7ncc(-c8cc(-c9ccccc9O)nnc8N)c7F)CC6)C5)CC4)CC3)no2)C(C)C)cc1 (stereo partly drawn) [Compound 100, (2S,4R)-4-hydroxy-N-[(1S)-1-[4-(4-methyl-1,3-thiazol-5-yl)phenyl]ethyl]-1-[(2R)-3-methyl-2-{3-[4-({4-[(1r,3r)-3-[4-(1-{4-[3-amino-6-(2-hydroxyphenyl)pyridazin-4-yl]-5-fluoro-1H-pyrazol-1-yl}ethyl)piperidin-1-yl]cyclobutoxy]piperidin-1-yl}methyl)piperidin-1-yl]-1,2-oxazol-5-yl}butanoyl]pyrrolidine-2-carboxamide] | < 2.5 nM | > 75% |
